According to publication PMC6272317, “Design, Synthesis and Antitubercular Activity of Certain Nicotinic Acid Hydrazides” (Molecules, 2015):
≈ marks a conversion by molar mass, not a printed value. Read-outs that look alike come from different tables or passages of the source.

Experiments:
[1] = system: M. tuberculosis (RCMB 010126); assay: microplate Alamar blue assay (MABA), in vitro antimycobacterial activity; type: cell-based, Mycobacterium tuberculosis; details: for Mean of Inhibition %: test concentration not stated; for MIC: visual MIC
[2] = system: PC-3 prostate cancer cell line; assay: SRB cytotoxicity assay, PC-3; details: for IC50: 72 h; for cytotoxicity (in words): PC-3
[3] = system: HepG-2 liver cancer cell line; design: method as in PMID 25499988; details: previous study ref 40, cited from earlier work; for IC50: HepG2, 72 h; for cytotoxicity (in words): HepG2
[4] = system: HT-29 colon cancer cell line; assay: SRB cytotoxicity assay, HT-29; details: for IC50: Homo sapiens, HT-29, 72 h; for cytotoxicity (in words): HT-29
[5] = system: A-549 human lung cancer cell line; design: method as in PMID 25499988; details: previous study ref 40, cited from earlier work; for IC50: A549, 72 h; for cytotoxicity (in words): A549
[6] = system: MCF-7 breast cancer cell line; design: method as in PMID 25499988; details: previous study ref 40, cited from earlier work; for IC50: MCF-7, 72 h; for cytotoxicity (in words): MCF-7
[7] = M. tuberculosis RCMB 010126, MABA
[8] = Mycobacterium tuberculosis, RCMB010126, M. tuberculosis RCMB 010126, MABA, read-out: MIC

Structure (SMILES): Cc1nc(-c2ccccc2)ccc1C(=O)NN [Compound 4a]
- Mean of Inhibition % [1, 7]: 42.52 ± 0.63%
- MIC [1, 8]: 25 µg/mL (≈ 110 µM)

Structure (SMILES): Cc1ccc(-c2ccc(C(=O)NN)c(C)n2)cc1 [Compound 4b]
- Mean of Inhibition % [1, 7]: 36.33 ± 0.58%
- MIC [1, 8]: 25 µg/mL (≈ 104 µM)

Structure (SMILES): Cc1nc(-c2ccc(F)cc2)ccc1C(=O)NN [Compound 4c, 6-(4-fluorophenyl)-2-methylnicotinohydrazide]
- Mean of Inhibition % [1, 7]: NA (No Activity (>100 µg/mL))
- antimycobacterial activity (in words) ([1]; M. tuberculosis, MABA): complete loss of activity
- MIC [1, 8]: > 100 µg/mL

Structure (SMILES): Cc1nc(-c2ccc(Cl)cc2)ccc1C(=O)NN [Compound 4d]
- MIC [1, 7]: 100 µg/mL (≈ 382 µM)
- Mean of Inhibition % [1, 7]: 12.45 ± 0.58%
- MIC [1, 8]: 50 µg/mL (≈ 191 µM)

Structure (SMILES): Cc1nc(-c2ccc(Br)cc2)ccc1C(=O)NN [Compound 4e, 6-(4-Bromophenyl)-2-methylnicotinohydrazide]
- MIC [1, 7]: 50 µg/mL (≈ 163 µM)
- Mean of Inhibition % [1, 7]: 20.63 ± 0.63%
- MIC [1, 8]: 100 µg/mL (≈ 327 µM)
- melting point: 213 to 215 °C

Structure (SMILES): COc1ccc(-c2ccc(C(=O)NN)c(C)n2)cc1 [Compound 4f, 6-(4-Methoxyphenyl)-2-methylnicotinohydrazide]
- Mean of Inhibition % [1, 7]: 42.63 ± 0.16%
- MIC [1, 8]: 25 µg/mL (≈ 97.2 µM)

Structure (SMILES): COc1ccc(-c2ccc(C(=O)NN)c(C)n2)cc1OC [Compound 4g, 6-(3,4-Dimethoxyphenyl)-2-methylnicotinohydrazide]
- Mean of Inhibition % [1, 7]: 22.63 ± 0.16%
- MIC [1, 8]: 50 µg/mL (≈ 174 µM)
- melting point: 204 to 205 °C

Structure (SMILES): COc1cc(-c2ccc(C(=O)NN)c(C)n2)cc(OC)c1OC [Compound 4h, 2-Methyl-6-(3,4,5-trimethoxyphenyl)nicotinohydrazide]
- Mean of Inhibition % [1, 7]: 18.32 ± 0.72%
- MIC [1, 8]: 50 µg/mL (≈ 158 µM)

Structure (SMILES): Cc1nc(-c2cccs2)ccc1C(=O)NN [Compound 4i]
- Mean of Inhibition % [1, 7]: 22.63 ± 0.20%
- MIC [1, 8]: 50 µg/mL (≈ 214 µM)

Structure (SMILES): Cc1nc(-c2ccc(Br)cc2)ccc1C(=O)NN=Cc1ccccc1 [Compound 7a, N′-Benzylidene-6-(4-bromophenyl)-2-methylnicotinohydrazide]
- Mean of Inhibition % [1, 7]: NA (No Activity (>100 µg/mL))
- MIC [1, 8]: > 100 µg/mL
- melting point: 270 to 272 °C

Structure (SMILES): Cc1nc(-c2ccc(Br)cc2)ccc1C(=O)NN=Cc1ccc(F)cc1 [Compound 7b, 6-(4-Bromophenyl)-N'-(4-fluorobenzylidene)-2-methylnicotinohydrazide]
- Mean of Inhibition % [1, 7]: NA (No Activity (>100 µg/mL))
- MIC [1, 8]: > 100 µg/mL
- melting point: 252 to 254 °C

Structure (SMILES): Cc1nc(-c2ccc(Br)cc2)ccc1C(=O)NN=Cc1ccc(Cl)cc1 [Compound 7c, 6-(4-Bromophenyl)-N'-(4-chlorobenzylidene)-2-methylnicotinohydrazide]
- Mean of Inhibition % [1, 7]: NA (No Activity (>100 µg/mL))
- MIC [1, 8]: > 100 µg/mL
- melting point: 265 to 267 °C

Structure (SMILES): Cc1nc(-c2ccc(Br)cc2)ccc1C(=O)NN=Cc1ccc(Cl)cc1Cl [Compound 7d, 6-(4-Bromophenyl)-N'-(2,4-dichlorobenzylidene)-2-methylnicotinohydrazide]
- Mean of Inhibition % [1, 7]: 13.57 ± 0.72%
- MIC [1, 8]: 100 µg/mL (≈ 216 µM)
- melting point: 269 to 271 °C

Structure (SMILES): COc1ccc(C=NNC(=O)c2ccc(-c3ccc(Br)cc3)nc2C)cc1 [Compound 7e, 6-(4-Bromophenyl)-N'-(4-methoxybenzylidene)-2-methylnicotinohydrazide]
- Mean of Inhibition % [1, 7]: NA (No Activity (>100 µg/mL))
- MIC [1, 8]: > 100 µg/mL
- melting point: 251 to 253 °C

Structure (SMILES): Cc1nc(-c2ccc(Br)cc2)ccc1C(=O)NN=Cc1ccc2ccccc2c1 [Compound 7f, 6-(4-Bromophenyl)-2-methyl-N'-(naphthalen-2-ylmethylene)nicotinohydrazide]
- Mean of Inhibition % [1, 7]: 14.32 ± 0.58%
- MIC [1, 8]: 100 µg/mL (≈ 225 µM)
- melting point: 273 to 275 °C

Structure (SMILES): Cc1nc(-c2ccc(F)cc2)ccc1C(=O)N/N=C1\C(=O)Nc2ccccc21 [Compound 8a]
- Mean of Inhibition % [1, 7]: 31.44 ± 0.58%
- MIC [1, 8]: 25 µg/mL (≈ 66.8 µM)
- IC50 [2]: > 200 µM
- IC50 [3]: > 200 µM
- IC50 [4]: > 200 µM
- IC50 [5]: > 200 µM
- IC50 [6]: > 200 µM

Structure (SMILES): Cc1nc(-c2ccc(F)cc2)ccc1C(=O)N/N=C1\C(=O)Nc2ccc(Cl)cc21 [Compound 8b]
- MIC [1, 7]: 12.5 µg/mL (≈ 30.6 µM)
- Mean of Inhibition % [1, 7]: 52.63 ± 0.58%
- MIC [1, 8]: 12.5 µg/mL (≈ 30.6 µM)
- IC50 [2]: > 200 µM
- cytotoxicity (in words) [2]: devoid of apparent cytotoxicity
- IC50 [3]: > 200 µM
- cytotoxicity (in words) [3]: devoid of apparent cytotoxicity
- cytotoxicity (in words) [4]: devoid of apparent cytotoxicity
- IC50 [4]: > 200 µM
- IC50 [5]: > 200 µM
- cytotoxicity (in words) [5]: devoid of apparent cytotoxicity
- IC50 [6]: > 200 µM
- cytotoxicity (in words) [6]: devoid of apparent cytotoxicity

Structure (SMILES): Cc1nc(-c2ccc(F)cc2)ccc1C(=O)N/N=C1\C(=O)Nc2ccc(Br)cc21 [Compound 8c]
- Mean of Inhibition % [1, 7]: 77.42 ± 0.93%
- MIC [1, 8]: 6.25 µg/mL (≈ 13.8 µM)
- IC50 [2]: > 200 µM
- cytotoxicity (in words) [2]: devoid of apparent cytotoxicity
- IC50 [3]: > 200 µM
- cytotoxicity (in words) [3]: devoid of apparent cytotoxicity
- cytotoxicity (in words) [4]: devoid of apparent cytotoxicity
- IC50 [4]: > 200 µM
- IC50 [5]: > 200 µM
- cytotoxicity (in words) [5]: devoid of apparent cytotoxicity
- IC50 [6]: > 200 µM
- cytotoxicity (in words) [6]: devoid of apparent cytotoxicity

Structure (SMILES): COc1cccc2c1C(=O)c1c(O)c3c(c(O)c1C2=O)C[C@@](O)(C(=O)CO)C[C@@H]3O[C@H]1C[C@H](N)[C@H](O)[C@H](C)O1 [Doxorubicin, reference compound]
- IC50 [2]: 6.5 ± 1.07 µM
- IC50 [3]: 6.9 ± 2.05 µM
- IC50 [4]: 7.3 ± 1.11 µM
- IC50 [5]: 7.6 ± 1.37 µM
- IC50 [6]: 6.1 ± 1.95 µM

Structure (SMILES): NNC(=O)c1ccncc1 [Isoniazide, Isoniazid, reference compound]
- MIC [1, 8]: 0.75 µg/mL (≈ 5.47 µM)

Structure (SMILES): NC(=O)c1cnccn1 [Pyrazinamid, pyrazinamide, reference compound]
- Mean of Inhibition % [1, 7]: 93.25 ± 0.63%
- MIC [1, 8]: 3.21 µg/mL (≈ 26.1 µM)
